Values joined by “and” are separate entries in the source; they are usually repeats but may differ in a detail not shown here. Equal values may be shown once. “Also recorded” adds a separate entry of the source. Marks after values point to notes of the source that are not given here.
Key:
[1] = type: physicochemical
Description: Aviptadil can be obtained, e.g., from Bachem AG, Bubendorf, Switzerland, in GMP quality.
The experimental procedure was carried out pursuant to Ph. Eur. 2.9.44 (Preparations for Nebulisation: Characterisation). A cascade impactor (Next Generation Impactor (NGI), Copley Scientific Ltd., Nottingham, UK) was used to determine the respective percentage for each fraction of the nebulized particles.
The thus generated aerosol was delivered to the cascade impactor by means of a mouthpiece (SK-211, NEBU-TEC, Eisenfeld, Germany).
The nebulization chamber (yellow stamp, 250 μl liquid discharge) was filled. The puff profile configured at the breath simulator was chosen in such a way that a correct simulation of inhalation by means of the nebulizer was ensured. The corresponding time was recorded.
Single values obtained for each cascade were added. […] MMAD, FPF and FPM were calculated from the obtained values: […]

CoViD-19 = experiment: Individual curing attempts for CoViD-19 with Aviptadil, oxygen demand; type: in vivo, human
Description: Example 18: Individual Curing Attempts for the Therapy of CoViD-19 with Aviptadil 3×66 μg Daily Per Inhalationem (Oxygen Demand Via Oxygen Nasal Cannula in L Per Minute (l/min))

[2] = Side effects of inhaled vasoactive intestinal peptide in previous trials; type: in vivo, human
sarcoidosis of the lung = experiment: Case: inhaled Aviptadil in a patient with severe sarcoidosis of the lung (KSQ); type: in vivo, human; details: for King's College Sarcoidosis Questionnaire (KSQ) score: 280 μg per day inhaled
Description: A patient with severe sarcoidosis of the lung indicated for therapeutic treatment suffered from unproductive chronic cough, dyspnea on exertion and chronic fatigue. […] Therapy was initiated at a dose of 4×70 μg/ml per day dosage (280 μg per day with overnight break; nebulizer: M-neb-dose+, NEBU-TEC, Eisenfeld, Germany; mouthpiece; SK-211, NEBU-TEC, Eisenfeld, Germany). Therapeutic benefit was measured by the newly established and well validated quality of life questionnaire for sarcoidosis, the King's College Sarcoidosis Questionnaire (KSQ; Patel et al. (2013) Thorax 68: 57-65). Therein an increase in score by 5 over time indicates significant clinical improvement. The patient started treatment at a score of 66, improved after 3 months of treatment to score 71, and after 6 months of treatment to score 77, which is 11 points higher than at beginning of treatment with Aviptadil.

Patients with SARS-CoV-2 = experiment: Study of aviptadil inhalation versus placebo in CoViD-19 patients; type: in vivo, human; details: during treatment, 28 days inhalative
Source text: A study examines the positive effect of aviptadil inhalation (dosage example 17) in CoViD-19 patients.
Patients with SARS-CoV-2 are randomized into two groups, one with 28 days aviptadil inhalative, one with 28 days placebo inhalative.

[3] = Aviptadil aerosol from M-neb dose+ MN-300/8 tested with COPLEY next generation impactor; type: physicochemical
Description: Using the M-neb® dose^+ mesh nebulizer MN-300/8 and the respective mouthpiece, Aviptadil has been tested with the COPLEY next generation impactor (NGI). The mass median aerodynamic diameter (MMD) of Aviptadil dissolved in 0.9% NaCl was 3.3-3.5 μm per emitted particle. The number of those particles <5 μm=85.70%, and the dose delivered at the mouthpiece was 90.2% of the tested dosages.
Aviptadil has been tested in 0.9% NaCl solution at different drug concentrations (35 μg/ml, 70 μg/ml, 140 μg/ml, 200 μg/ml, 250 μg/ml, 400 μg/ml).

[4] = tested on: CoViD-19 infected patients at risk for ARDS; details: human, in vivo
[5] = tested on: pulmonary arterial hypertension (PAH); experiment: Case: inhaled Aviptadil in a patient with severe pulmonary arterial hypertension; type: in vivo, human
Description: A patient with severe pulmonary arterial hypertension (PAH), associated with collagen vascular disease, presented with signs of right ventricular decompensation, with an initial pulmonary vascular resistance (PVR) of 1413 dyn s cm^−5. The patient was treated before with bosentan for 3 months. This therapy was discontinued due to increased liver enzymes. PAH-specific medication was changed to triple therapy comprising inhaled iloprost and systemic sildenafil and ambrisentan. The patient developed peripheral edema, right ventricular hypertrophy, right ventricular systolic pressure (RVSP) 97 mm Hg, TAPSE (tricuspid annular plane systolic excursion) 17 mm, 6 min walking test 290 m. A repeated prostanoid therapy was refused by the patient. Due to the lack of other treatment options, treatment with inhaled Aviptadil was initiated at a dose of 4×140 μg/ml per day (560 μg/day) with overnight break, droplet characteristics of a MMAD of 3.4 μm per emitted particle (nebulizer: M-neb-dose+, NEBU-TEC, Eisenfeld, Germany). 90% of the dose were delivered at the mouthpiece (SK-211, NEBU-TEC, Eisenfeld, Germany). Inhalation time per treatment was 12 minutes. […] 6 months later the 6 min walking test was increased to 340 m, 12 months later to 410 m. 3 years later an ongoing improvement was noted, with 6 min walking distances between 430-475 m and still persistent PAH, but good right ventricular function of TAPSE 22 mm. This dramatic improvement of the patient over time is attributed to the effect of inhaled Aviptadil.

[6] = tested on: PBMCs stimulated with beryllium; experiment: Case: inhaled Aviptadil in a patient with Chronic Beryllium Disease, PBMC proliferation and cytokines; type: in vivo, human; details: after 6 months of treatment
Source text: A patient who was continuously exposed to beryllium at their workplace developed Chronic Beryllium Disease (CBD). This was diagnosed by tests performed on peripheral blood and bronchoalveolar lavage (BAL) mononuclear cells. […] A test called beryllium lymphocyte proliferation test (BeLPT) confirmed the CBD diagnosis. Due to the lack of available treatment options for CBD, the patient qualified for the Early Access Program treatment with inhaled Aviptadil. Therapy was initiated at a dose of 4×70 μg/ml per day dosage (280 μg per day with overnight break; nebulizer: M-neb-dose+, NEBU-TEC, Eisenfeld, Germany; mouthpiece; SK-211, NEBU-TEC, Eisenfeld, Germany). After 6 months of treatment, the proliferation rate of PBMCs stimulated with beryllium (0.1 mM) from the patient was inhibited by 100% by Aviptadil.

ARDS = details: systemic administration, cited from earlier work
[7] = may be as low as; cited from earlier work
[8] = 0.1 mg/ml in physiological saline
[9] = estimated values with 25 l/min Highflow with oxygen from 72 to 44%
[10] = oxygen nasal cannula, 3×66 μg daily, one table line per patient
[11] = oxygen nasal cannula, 3×66 μg daily, one table line per patient, listed as Aviptadil

## CC[C@H](C)[C@H](NC(=O)[C@H](CO)NC(=O)[C@H](CC(N)=O)NC(=O)[C@H](CC(C)C)NC(=O)[C@H](Cc1ccc(O)cc1)NC(=O)[C@H](CCCCN)NC(=O)[C@H](CCCCN)NC(=O)[C@@H](NC(=O)[C@H](C)NC(=O)[C@H](CCSC)NC(=O)[C@H](CCC(N)=O)NC(=O)[C@H](CCCCN)NC(=O)[C@H](CCCNC(=N)N)NC(=O)[C@H](CC(C)C)NC(=O)[C@H](CCCNC(=N)N)NC(=O)[C@@H](NC(=O)[C@H](Cc1ccc(O)cc1)NC(=O)[C@H](CC(N)=O)NC(=O)[C@H](CC(=O)O)NC(=O)[C@@H](NC(=O)[C@H](Cc1ccccc1)NC(=O)[C@@H](NC(=O)[C@H](C)NC(=O)[C@H](CC(=O)O)NC(=O)[C@H](CO)NC(=O)[C@@H](N)Cc1c[nH]cn1)C(C)C)[C@@H](C)O)[C@@H](C)O)C(C)C)C(=O)N[C@@H](CC(C)C)C(=O)N[C@@H](CC(N)=O)C(N)=O [vasoactive intestinal peptide]
[1]; [8]
  MMAD: 3.40 μm
  released dosage at the mouthpiece as share of the nominal value: 80%
[1]; 0.1 mg/ml in physiological saline, at the mouthpiece
  released dosage: 0.08 mg
[1]; Example 11, 140 μg/ml, M-neb-dose+
  MMAD per emitted particle: 3.4 μm
[1]; Example 11, mouthpiece SK-211
  dose delivered at the mouthpiece: 90%
[1]; corresponds to 30 strokes/breaths
  time of aerosol release: 3 min
CoViD-19; [9]
  O2 Day 1: 15* l/min
  O2 Day 2: 15* l/min
  O2 Day 3: 14* l/min
  O2 Day 4: 11* l/min
  O2 Day 5: 6* l/min
  O2 Day 6: 6* l/min
CoViD-19; [10]
  O2 Day 11: 6 L/min
  O2 Day 12: 3.3 L/min
  O2 Day 13: 2 L/min
  O2 Day 14: 1.5 L/min
  O2 Day 15: 1 L/min
  O2 Day 16: 0.5 L/min
  O2 Day 17: 0 L/min
CoViD-19; [11]
  O2 Day 1: 5 L/min and 3 L/min and 2 L/min and 1.5 L/min
  O2 Day 2: 4 l/min and 3 l/min (2×) and 2 l/min
  O2 Day 3: 6 l/min and 4 l/min and 3 l/min (2×) and 2 l/min
  O2 Day 4: 5 l/min and 4 l/min and 2 l/min (3×)
  O2 Day 5: 4 l/min and 3 l/min and 1 l/min (2×) and 0 l/min
  O2 Day 6: 3 l/min and 2 l/min (2×) and 0 l/min
  O2 Day 7: 2 l/min (2×) and 1 l/min and 4 l/min
  O2 Day 8: 0 l/min and 1 l/min (2×) and 5.5 l/min
  O2 Day 9: 1 l/min (2×) and 4.7 l/min
  O2 Day 10: 0 l/min (2×) and 5.5 l/min
[2]
  side effects found with systemic administration: lacks the side effects; also recorded: lacks these side effects
Sarcoidosis of the lung; after 3 months, score 66 at start
  King's College Sarcoidosis Questionnaire (KSQ) score: 71
Sarcoidosis of the lung; after 6 months
  KSQ score higher than at beginning of treatment: 11 points
  King's College Sarcoidosis Questionnaire (KSQ) score: 77
Patients with SARS-CoV-2
  T-cells expressing CD28 promoting inflammation: diminished
  TNF release in the lung: diminished
  regulatory T-cells dampening inflammation: increased
[3]
  dose delivered at the mouthpiece, of the tested dosages: 90.2%
[3]; 35 to 400 μg/ml in 0.9% NaCl
  linearity of aerosol output rates at the mouthpiece over increasing numbers of breathing cycles: excellent linearity
[3]; dissolved in 0.9% NaCl
  mass median aerodynamic diameter (MMD) per emitted particle: 3.3-3.5 μm
  number of particles <5 μm: 85.70%
[4]
  Arterio-alveolar oxygen difference (AaDO2): lower
  need of oxygen supplementation: lower need of oxygen supplementation
  oxygenation (SpO2/FiO2 quotient): better oxygenation
  rate of progression to ARDS: reduced rate of progression to ARDS
  respiratory rate: decrease of respiratory rate
[5]; 560 μg/day inhaled
  clinical course: gradual improvement
[5]; 3 years later
  6 min walking distances: 430-475 m
[5]; 3 years later, 17 mm before
  TAPSE: 22 mm
[5]; 6 months later, 560 μg/day inhaled, 290 m before
  6 min walking test: 340 m
[5]; 12 months later, 560 μg/day inhaled
  6 min walking test: 410 m
[6]
  production of cytokines TNF-alpha, IL-17: significantly diminished
ARDS; some of the patients
  systemic side effects: hypotension
ARDS; trial discontinued
  effect on ARDS: lack of positive effect
[7]
  half-life in blood: about 2 minutes
